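A five-concentration, 48-hour dose response in 96-well plates underlies each endpoint, interpolated linearly between surrounding concentrations. Here, GI50 denotes the concentration required for 50% inhibition of growth. At the TGI there is no net growth.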
Key:
Assay in all cases: NCI tumour cell line growth inhibition, 48 h
786-0 renal = test system: 786-0 renal
A498 renal = test system: A498 renal
A549 NSCLC = test system: A549 NSCLC
BT-549 breast = test system: BT-549 breast
CAKI-1 renal = test system: CAKI-1 renal
CCRF-CEM leukemia = test system: CCRF-CEM leukemia
COLO 205 colon = test system: COLO 205 colon
DU-145 prostate = test system: DU-145 prostate
EKVX NSCLC = test system: EKVX NSCLC
HCT-116 colon = test system: HCT-116 colon
HCT-15 colon = test system: HCT-15 colon
HL-60(TB) leukemia = test system: HL-60(TB) leukemia
HOP-62 NSCLC = test system: HOP-62 NSCLC
HOP-92 NSCLC = test system: HOP-92 NSCLC
HS 578T breast = test system: HS 578T breast
HT29 colon = test system: HT29 colon
IGROV1 ovarian = test system: IGROV1 ovarian
K-562 leukemia = test system: K-562 leukemia
KM12 colon = test system: KM12 colon
LOX IMVI melanoma = test system: LOX IMVI melanoma
M14 melanoma = test system: M14 melanoma
MALME-3M melanoma = test system: MALME-3M melanoma
MCF7 breast = test system: MCF7 breast
MDA-MB-231 breast = test system: MDA-MB-231 breast
MDA-MB-435 = test system: MDA-MB-435
MDA-N = test system: MDA-N
MOLT-4 leukemia = test system: MOLT-4 leukemia
NCI-H226 lung = test system: NCI-H226 lung
NCI-H23 lung = test system: NCI-H23 lung
NCI-H522 lung = test system: NCI-H522 lung
NCI/ADR-RES ovarian = test system: NCI/ADR-RES ovarian
OVCAR-3 ovarian = test system: OVCAR-3 ovarian
OVCAR-4 ovarian = test system: OVCAR-4 ovarian
OVCAR-5 ovarian = test system: OVCAR-5 ovarian
OVCAR-8 ovarian = test system: OVCAR-8 ovarian
PC-3 prostate = test system: PC-3 prostate
RPMI-8226 leukemia = test system: RPMI-8226 leukemia
RXF 393 renal = test system: RXF 393 renal
SF-268 CNS = test system: SF-268 CNS
SF-295 CNS = test system: SF-295 CNS
SF-539 CNS = test system: SF-539 CNS
SK-MEL-2 melanoma = test system: SK-MEL-2 melanoma
SK-MEL-28 melanoma = test system: SK-MEL-28 melanoma
SK-MEL-5 melanoma = test system: SK-MEL-5 melanoma
SK-OV-3 ovarian = test system: SK-OV-3 ovarian
SN12C renal = test system: SN12C renal
SNB-19 CNS = test system: SNB-19 CNS
SNB-75 CNS = test system: SNB-75 CNS
SR leukemia = test system: SR leukemia
SW-620 colon = test system: SW-620 colon
T-47D breast = test system: T-47D breast
TK-10 renal = test system: TK-10 renal
U251 CNS = test system: U251 CNS
UACC-257 melanoma = test system: UACC-257 melanoma
UACC-62 melanoma = test system: UACC-62 melanoma
DLD-1 colon = test system: DLD-1 colon
DMS 114 small cell lung = test system: DMS 114 small cell lung
DMS 273 small cell lung = test system: DMS 273 small cell lung
HCC-2998 colon = test system: HCC-2998 colon
M19-MEL melanoma = test system: M19-MEL melanoma
NCI-H460 lung = test system: NCI-H460 lung
SNB-78 CNS = test system: SNB-78 CNS
UO-31 renal = test system: UO-31 renal
XF 498 CNS = test system: XF 498 CNS

O=[N+]([O-])c1ccc2c3c1[C@@H]1O[C@@H]1c1cccc(c1-3)[C@@H]1O[C@H]21
TGI (786-0 renal): 7.85 µM
TGI (A498 renal): 8.87 µM
TGI (A549 NSCLC): 31 µM
TGI (BT-549 breast): 21.1 µM
TGI (CAKI-1 renal): 3.2 µM
TGI (CCRF-CEM leukemia): 8.17 µM
TGI (COLO 205 colon): 23.1 µM
TGI (DU-145 prostate): 8.72 µM
TGI (EKVX NSCLC): 20.4 µM
TGI (HCT-116 colon): 5.95 µM
TGI (HCT-15 colon): 6.05 µM
TGI (HL-60(TB) leukemia): 7.58 µM
TGI (HOP-62 NSCLC): 34.4 µM
TGI (HOP-92 NSCLC): 28.6 µM
TGI (HS 578T breast): 19.7 µM
TGI (HT29 colon): 14.7 µM
TGI (IGROV1 ovarian): 2.72 µM
TGI (K-562 leukemia): > 100 µM
TGI (KM12 colon): 10.1 µM
TGI (LOX IMVI melanoma): 3.44 µM
TGI (M14 melanoma): 9.9 µM
TGI (MALME-3M melanoma): 12.7 µM
TGI (MCF7 breast): > 100 µM
TGI (MDA-MB-231 breast): 15.3 µM
TGI (MDA-MB-435): 5.22 µM
TGI (MDA-N): 10.5 µM
TGI (MOLT-4 leukemia): > 100 µM
TGI (NCI-H226 lung): > 80.9 µM
TGI (NCI-H23 lung): 11.6 µM
TGI (NCI-H522 lung): 3.33 µM
TGI (NCI/ADR-RES ovarian): > 38.5 µM
TGI (OVCAR-3 ovarian): 10.9 µM
TGI (OVCAR-4 ovarian): 9.48 µM
TGI (OVCAR-5 ovarian): 31.3 µM
TGI (OVCAR-8 ovarian): 4.46 µM
TGI (PC-3 prostate): > 28.5 µM
TGI (RPMI-8226 leukemia): > 100 µM
TGI (RXF 393 renal): 16.8 µM
TGI (SF-268 CNS): 10.6 µM
TGI (SF-295 CNS): 40.8 µM
TGI (SF-539 CNS): 4.02 µM
TGI (SK-MEL-2 melanoma): > 23.7 µM
TGI (SK-MEL-28 melanoma): > 22.1 µM
TGI (SK-MEL-5 melanoma): 27.2 µM
TGI (SK-OV-3 ovarian): 44.3 µM
GI50 (SN12C renal): 3.36 µM
TGI (SN12C renal): 15.7 µM
TGI (SNB-19 CNS): > 58.5 µM
TGI (SNB-75 CNS): 17.5 µM
TGI (SR leukemia): > 100 µM
TGI (SW-620 colon): 6.7 µM
TGI (T-47D breast): 12 µM
TGI (TK-10 renal): > 51.2 µM
TGI (U251 CNS): 11.8 µM
TGI (UACC-257 melanoma): > 25.1 µM
TGI (UACC-62 melanoma): 31.6 µM

C=CCN1C(=O)NC(=O)/C(=C/c2c3ccccc3cc3ccccc23)C1=O
TGI (A549 NSCLC): 58.2 µM
TGI (CAKI-1 renal): 40.3 µM
TGI (CCRF-CEM leukemia): > 100 µM
TGI (COLO 205 colon): 35.3 µM
TGI (DLD-1 colon): 44.7 µM
TGI (DMS 114 small cell lung): 45.2 µM
TGI (DMS 273 small cell lung): 43.4 µM
TGI (EKVX NSCLC): 48.8 µM
TGI (HCC-2998 colon): 28.4 µM
TGI (HCT-116 colon): 30.8 µM
TGI (HOP-62 NSCLC): 33.2 µM
TGI (HOP-92 NSCLC): 54.4 µM
TGI (HT29 colon): 37.9 µM
TGI (IGROV1 ovarian): > 10 µM
TGI (K-562 leukemia): 66.5 µM
TGI (KM12 colon): 31.8 µM
TGI (LOX IMVI melanoma): 75.4 µM
TGI (M14 melanoma): 37.2 µM
TGI (M19-MEL melanoma): > 100 µM
TGI (MALME-3M melanoma): 39.3 µM
TGI (MOLT-4 leukemia): 48.9 µM
TGI (NCI-H226 lung): 45.9 µM
TGI (NCI-H23 lung): > 10 µM
TGI (NCI-H460 lung): 37 µM
TGI (NCI-H522 lung): 44.8 µM
TGI (OVCAR-3 ovarian): 42.3 µM
TGI (OVCAR-4 ovarian): 47.5 µM
TGI (OVCAR-5 ovarian): 44.4 µM
TGI (OVCAR-8 ovarian): 55 µM
TGI (RXF 393 renal): 34.6 µM
TGI (SF-268 CNS): 60.8 µM
TGI (SF-295 CNS): 38.3 µM
TGI (SF-539 CNS): 38.1 µM
TGI (SK-MEL-2 melanoma): 38.7 µM
TGI (SK-MEL-28 melanoma): 68.1 µM
TGI (SK-MEL-5 melanoma): > 10 µM
TGI (SK-OV-3 ovarian): 66 µM
TGI (SNB-19 CNS): 47.7 µM
TGI (SNB-75 CNS): 45 µM
TGI (SNB-78 CNS): > 100 µM
TGI (SR leukemia): 74 µM
TGI (SW-620 colon): > 100 µM
TGI (TK-10 renal): 37.4 µM
TGI (U251 CNS): 36.5 µM
TGI (UACC-62 melanoma): 50.4 µM
TGI (UO-31 renal): 37 µM
TGI (XF 498 CNS): 40.7 µM

— PubChem BioAssay (NCI)
